Source: patent US9073880B2, “2-(2-phenylethenyl) 1,3-benzodiazepine derivatives useful for the treatment of cancer” (Yissum Research Development Company of the Hebrew …, priority 2010, dated 2015)

Tested on: human colon carcinoma HCT15 cells
Experiment: Cell proliferation, HCT15 (Example 4)
Type: cell-based
Settings: HCT-15, HCT15, colon cancer, compound in 2-hydroxypropyl-β-cyclodextrin
Experimental: Human ovary cancer A2780 cells lines were seeded at a density of 5000 cells/well, human melanoma A375 cells were plated at a density of 2,500 cells/well, human colon carcinoma HCT15 cells were plated at a density of 3,000 cells/well, human prostate carcinoma PC3 cells were plated at a density of 1,500 cells/well, human breast carcinoma MCF7 cells were plated at a density of 5,000 cells/well, human breast carcinoma MDA MB 468 cells were plated at a density of 6,000 cells/well, human myeloma U266, RPMI8226 and CAG cells were plated at a density of 10,000 cells/well. All cells were plated in 96-well plates in 90 μl growth medium containing 10% FCS, 100 units/ml penicillin and 100 μg/ml streptomycin. Compound 3 was added a day later in […] of 1% DMSO in DDW to obtain final concentrations of 0, 0.1, 0.3, 1, 3, and 10 μM. The final concentration of DMSO (0.1% DMSO) was kept constant in all samples. […] The optical density values were read at 630 nm in ELISA plate reader. Non-adhered cells were exposed to WST-1 reagent for 5 hours following 72 hours treatment with the inhibitors, and optical density values were read at 630 nm in ELISA plate reader. The data was analyzed in Microsoft Excel, using the vehicle control as 100% proliferation. […]

Structure (SMILES)	IC50 [nM]
O=c1c(O)cc2cnc(/C=C/c3cc(O)c(O)c(Br)c3)sc-2c1O [Compound 3]	700
O=c1c(O)cc2cnc(/C=C/c3ccc(O)c(O)c3Br)sc-2c1O [Compound 5]	900
